ChEMBL document CHEMBL2434901, “2-Phenylbenzofuran derivatives alleviate mitochondrial damage via the inhibition of β-amyloid aggregation” (Bioorg Med Chem Lett, 2013)
One block for each molecule: values may come before it. Activity calls are given as the source filed them. No cut-off for these calls is given here.

What was measured:
[1] = target: Amyloid-beta precursor protein (Homo sapiens) (UniProt P05067); experiment: Inhibition of amyloid beta (unknown origin) fibril formation at 10 uM by thioflavin T fluorescent dye assay
Chain of Amyloid-beta precursor protein (Homo sapiens) (P05067 whole entry): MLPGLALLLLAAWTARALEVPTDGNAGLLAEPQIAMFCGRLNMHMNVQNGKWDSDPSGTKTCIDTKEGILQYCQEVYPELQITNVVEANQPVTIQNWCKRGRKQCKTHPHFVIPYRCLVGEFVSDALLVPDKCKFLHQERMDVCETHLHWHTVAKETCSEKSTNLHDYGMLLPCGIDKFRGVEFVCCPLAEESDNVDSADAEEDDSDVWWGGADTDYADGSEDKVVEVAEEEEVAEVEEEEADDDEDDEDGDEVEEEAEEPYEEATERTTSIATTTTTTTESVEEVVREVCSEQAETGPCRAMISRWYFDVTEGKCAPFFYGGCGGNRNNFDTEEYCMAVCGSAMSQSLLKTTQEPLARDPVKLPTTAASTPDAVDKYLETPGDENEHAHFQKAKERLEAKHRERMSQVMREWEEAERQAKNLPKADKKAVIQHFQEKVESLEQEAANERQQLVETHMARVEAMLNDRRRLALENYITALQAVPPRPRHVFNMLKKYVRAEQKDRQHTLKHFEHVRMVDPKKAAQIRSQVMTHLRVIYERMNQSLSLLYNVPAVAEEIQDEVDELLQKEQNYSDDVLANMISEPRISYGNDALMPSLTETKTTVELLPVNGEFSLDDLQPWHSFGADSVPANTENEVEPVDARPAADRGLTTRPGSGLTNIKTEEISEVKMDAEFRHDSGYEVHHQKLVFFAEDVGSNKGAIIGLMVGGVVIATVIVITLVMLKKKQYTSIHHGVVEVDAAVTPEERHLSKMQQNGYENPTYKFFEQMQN

[2] = test system: HT-22; experiment: Neuroprotective activity in mouse HT22 cells assessed as reduction of amyloid beta (1 to 42)-induced cytotoxicity by measuring green to red fluorescence ratio using JC1 staining at 10 uM after 10 mins relative to amyloid beta (1 to 42) treated control; assay type: functional
[3] = Cytotoxicity against mouse HT22 cells assessed as cell viability at 10 uM by MTT assay relative to control; assay type: cell-based, HT-22; details: read-out: Activity
[4] = target: Amyloid-beta precursor protein (Homo sapiens) (UniProt P05067); experiment: Inhibition of amyloid beta (1 to 42) (unknown origin) oligomerization at 10 uM after 2 hrs by SDS-PAGE analysis
[5] = test system: HT-22; experiment: Neuroprotective activity in mouse HT22 cells assessed as reduction of amyloid beta (1 to 42)-induced cytotoxicity by measuring green to red fluorescence ratio using JC1 staining at 10 uM after 10 mins relative to control; assay type: functional; details: HT-22, 10 min

SMILES: O=C(O)/C=C/c1cc(O)c2oc(-c3cccc(O)c3)cc2c1
- inhibition [1]: 0%

SMILES: O=C(O)/C=C/c1cc(O)c2oc(-c3ccccc3F)cc2c1
- inhibition [1]: 19.7%

SMILES: CN(C)c1cccc(-c2cc3cc(/C=C/C(=O)O)cc(O)c3o2)c1
- inhibition [1]: 33.3%

SMILES: COc1ccc(-c2cc3cc(/C=C/C(=O)O)cc(O)c3o2)cc1
- inhibition [1]: 34.2%

SMILES: CN(C)c1ccc(-c2cc3cc(/C=C/C(=O)O)ccc3o2)cc1
- inhibition [1]: 57%

SMILES: CN(C)c1ccc(-c2cc3cc(/C=C/C(=O)O)cc(O)c3o2)cc1F
- Ratio [2]: 115.7
- inhibition at 10 µM [5]: 22.3%
- viability at 10 µM [3]: 111%
- inhibition [4]: Active
- inhibition [1]: 49.8%

SMILES: O=C(O)/C=C/c1cc(O)c2oc(-c3ccc(F)cc3)cc2c1
- inhibition [1]: 26.7%

SMILES: COc1cc(-c2cc3cc(/C=C/C(=O)O)cc(OC)c3o2)ccc1N(C)C
- Ratio [2]: 104.2
- viability at 10 µM [3]: 104%
- inhibition [4]: Active
- inhibition [1]: 50.2%

SMILES: O=C(O)/C=C/c1cc(O)c2oc(-c3ccc(O)cc3)cc2c1
- inhibition [1]: 22.4%

SMILES: COc1ccc(-c2cc3cc(/C=C/C(=O)O)cc(OC)c3o2)cc1N(C)C
- inhibition [1]: 11.7%

SMILES: CN(C)c1ccc(-c2cc3cc(/C=C/C(=O)O)cc(O)c3o2)cc1
- Ratio [2]: 123.2
- inhibition at 10 µM [5]: 73.1%
- viability at 10 µM [3]: 100%
- inhibition [4]: Active
- inhibition [1]: 70.6%

SMILES: COc1cc(/C=C/C(=O)O)ccc1O
- inhibition [4]: Active
- inhibition [1]: 42.8%

SMILES: CN(C)c1ccccc1-c1cc2cc(/C=C/C(=O)O)cc(O)c2o1
- inhibition [1]: 8.1%

SMILES: COc1cc(-c2cc3cc(/C=C/C(=O)O)cc(O)c3o2)ccc1N(C)C
- Ratio [2]: 113.4
- inhibition at 10 µM [5]: 45%
- viability at 10 µM [3]: 102%
- inhibition [4]: Active
- inhibition [1]: 45.9%

SMILES: O=C(O)/C=C/c1cc(O)c2oc(-c3cccc(F)c3)cc2c1
- inhibition [1]: 14.3%

SMILES: COc1ccc(-c2cc3cc(/C=C/C(=O)O)cc(O)c3o2)cc1O
- Ratio [2]: 122.1
- inhibition at 10 µM [5]: 14.5%
- viability at 10 µM [3]: 104%
- inhibition [1]: 43.3%

SMILES: CN(C)c1cc(-c2cc3cc(/C=C/C(=O)O)cc(O)c3o2)ccc1F
- inhibition [1]: 16.8%

SMILES: COc1cc(-c2cc3cc(/C=C/C(=O)O)cc(O)c3o2)ccc1O
- Ratio [2]: 115.9
- viability at 10 µM [3]: 105%
- inhibition [1]: 42.6%

SMILES: O=C(O)/C=C/c1cc(O)c2oc(-c3ccccc3O)cc2c1
- inhibition [1]: 28.3%

SMILES: COc1ccc(-c2cc3cc(/C=C/C(=O)O)cc(O)c3o2)cc1N(C)C
- inhibition [1]: 32.5%

Second part, led by results:

- inhibition [1]: 0.4%
SMILES: COc1cc(/C=C/C(=O)O)cc2cc(-c3cccc(F)c3)oc12

- inhibition [1]: 0%
SMILES: COc1cccc(-c2cc3cc(/C=C/C(=O)O)cc(O)c3o2)c1

- inhibition [1]: 7%
SMILES: COc1cc(/C=C/C(=O)O)cc2cc(-c3ccccc3F)oc12

- inhibition [1]: 0%
SMILES: COc1ccccc1-c1cc2cc(/C=C/C(=O)O)cc(O)c2o1

- inhibition [1]: 0%
SMILES: COc1ccccc1-c1cc2cc(/C=C/C(=O)O)cc(OC)c2o1

- inhibition [4]: Active
- inhibition [1]: 72.6%
SMILES: COc1cc(/C=C/C(=O)O)cc2cc(-c3ccc(N(C)C)cc3)oc12
- Ratio [2]: 90.3
- viability at 10 µM [3]: 93.3%

- inhibition [1]: 34.8%
SMILES: COc1cc(/C=C/C(=O)O)cc2cc(-c3cccc(N(C)C)c3)oc12

- inhibition [1]: 14.8%
SMILES: COc1cc(/C=C/C(=O)O)cc2cc(-c3ccc(O)cc3)oc12

- inhibition [1]: 0%
SMILES: COc1cccc(-c2cc3cc(/C=C/C(=O)O)cc(OC)c3o2)c1

- inhibition [1]: 28.4%
SMILES: COc1cc(-c2cc3cc(/C=C/C(=O)O)cc(OC)c3o2)ccc1O

- inhibition [1]: 0%
SMILES: COc1ccc(-c2cc3cc(/C=C/C(=O)O)cc(OC)c3o2)cc1O

- inhibition [1]: 3.7%
SMILES: COc1cc(/C=C/C(=O)O)cc2cc(-c3ccccc3N(C)C)oc12

- inhibition [1]: 16.8%
SMILES: O=C(O)/C=C/c1cc(O)c2oc(-c3ccccc3)cc2c1

- inhibition [1]: 0%
SMILES: COc1cc(/C=C/C(=O)O)cc2cc(-c3ccccc3)oc12

- inhibition [1]: 12.5%
SMILES: COc1ccc(-c2cc3cc(/C=C/C(=O)O)cc(OC)c3o2)cc1

- inhibition [1]: 0%
SMILES: COc1cc(/C=C/C(=O)O)cc2cc(-c3cccc(O)c3)oc12

- inhibition [1]: 9.9%
SMILES: COc1cc(/C=C/C(=O)O)cc2cc(-c3ccc(F)c(N(C)C)c3)oc12

- inhibition [4]: Active
- inhibition [1]: 57.5%
SMILES: COc1cc(/C=C/C(=O)O)cc2cc(-c3ccc(N(C)C)c(F)c3)oc12
- Ratio [2]: 103.1
- viability at 10 µM [3]: 102%

- inhibition [1]: 18.1%
SMILES: COc1cc(/C=C/C(=O)O)cc2cc(-c3ccccc3O)oc12

- inhibition [1]: 2.7%
SMILES: COc1cc(/C=C/C(=O)O)cc2cc(-c3ccc(F)cc3)oc12
